In patent publication US9763444B2, “Compositions and methods for repelling blood-sucking and biting insects, ticks and mites” (The United States of America, as represented by the …, priority 2013, dated 2017):

Legend:
An. albimanus = assay: Minimum Effective Dosage (MED) test on treated cloth, mosquito repellency; format: in vivo, Anopheles albimanus; details: Table 4; for An. albimanus Minimum Effective Dosage, Average: mean of 5 volunteers; for An. albimanus Minimum Effective Dosage, M4: subject M4; for An. albimanus Minimum Effective Dosage, M4 / An. albimanus Minimum Effective Dosage, M5 / An. albimanus Minimum Effective Dosage, M8 / An. albimanus Minimum Effective Dosage, M9 / An. albimanus Minimum Effective Dosage, M10: highest concentration 1.500 mg/cm^2; for An. albimanus Minimum Effective Dosage, M5: subject M5; for An. albimanus Minimum Effective Dosage, M8: subject M8; for An. albimanus Minimum Effective Dosage, M9: subject M9; for An. albimanus Minimum Effective Dosage, M10: subject M10
Ae. aegypti [1] = assay: as above; format: in vivo, Aedes aegypti; details: for Ae. aegypti Minimum Effective Dosage, M9: human subject M9; for Ae. aegypti Minimum Effective Dosage, M10: human subject M10
Procedure: Bioassay for mosquito repellent activity: Repellency screening test for experimental chemicals were carried out to identify candidates that might be useful repellents. The repellent efficacy was compared to that of the standard repellent, DEET. Experimental compounds were assessed in one of two ways: (1) a range of concentration was evaluated to determine the minimum effective dosage (MED) which was the concentration threshold of where the repellent began to fail and allowed bites, or (2) a predetermined concentration of each repellent was applied to cloth and the activity was evaluated over several days (or in some cases months) (Katritzky, A. R., et al., Proc. Nat. Acad. Sci. (US), 105, 7359-7364 (2008); Katritzky, A. R., et al., Journal of Med. Entomol., 47: 924-938 (2010)). When conducting assays for repellency, a failure point was also predetermined for those measurements. Since experiments described herein used about 500 female mosquitoes per test, the failure point was set at 1% (equal to 5 bites) received during a test interval. From 3 to 5 volunteers participated in the screening of each set of chemicals.
Minimum Effective Dosage (MED) Test: The MED bioassays on treated cloth were a method of screening to determine the minimum amount of a repellent needed to prevent bites. Experimental compounds were prepared in solution by combining 0.15 g of experimental chemical with 2 mL of acetone in a 7.1 mL screwtop glass vial. This solution was then serially diluted to obtain nine concentrations when applied on to the cloth patch: 1.5, 0.75, 0.375, 0.187, 0.094, 0.047, 0.023, 0.011, and 0.006 mg/cm^2. The standard N,N-diethyl-3-methylbenzamide (DEET) was also tested at the same concentration levels to serve as a control and a comparison for relative repellency. A 50 cm^2 (5 cm×10 cm) patch of muslin cloth was rolled lengthwise and placed into each of the glass vials and scaled with a screwtop so it soaked up the solution. Just prior to the experiment, the pieces of treated cloth were removed from the vials, affixed to card stock tabs (5 cm×3 cm) with staples, and hung with masking tape on a rack to dry and allow acetone to evaporate. Volunteers wore a latex glove over their hands, a nylon stocking over their arm, and then wrapped a plastic Velcro-sealed sleeve over their entire forearm with a 32 cm^2 (4 cm×8 cm) window cut-out to allow mosquitoes to bite through. The nylon stocking acted as a barrier between the dried cloth and the skin, an additional precaution with experimental compounds. Dried cloth patches were stretched across the window in the plastic sleeve and held in place with masking tape. Volunteers placed their sleeve-covered arms into a screened cage for a one minute period with approximately 500 female Ae. aegypti mosquitoes that had been preselected for host-seeking behavior using a draw box (Posey, K. H., and C. E. Schreck, Mosquito News, 41: 566-568 (1981)). […] The MED recorded was the lowest passing concentration level tested for the experimental compound. […] All human volunteers in the study provided informed consent to participate of a protocol approved by the University of Florida Human Use Institutional Review Board (IRB #636-2005).

Ae. aegypti [2] = assay: Complete Protection Time test on treated cloth (duration of protection); format: in vivo, Aedes aegypti; details: Dosage 0.75 mg/cm^2 on cloth; for Duration of protection against Ae. aegypti, M-3 Days Protection: subject M-3
Procedure: Bioassay for mosquito repellent activity: Repellency screening test for experimental chemicals were carried out to identify candidates that might be useful repellents. The repellent efficacy was compared to that of the standard repellent, DEET. Experimental compounds were assessed in one of two ways: (1) a range of concentration was evaluated to determine the minimum effective dosage (MED) which was the concentration threshold of where the repellent began to fail and allowed bites, or (2) a predetermined concentration of each repellent was applied to cloth and the activity was evaluated over several days (or in some cases months) (Katritzky, A. R., et al., Proc. Nat. Acad. Sci. (US), 105, 7359-7364 (2008); Katritzky, A. R., et al., Journal of Med. Entomol., 47: 924-938 (2010)). When conducting assays for repellency, a failure point was also predetermined for those measurements. Since experiments described herein used about 500 female mosquitoes per test, the failure point was set at 1% (equal to 5 bites) received during a test interval. From 3 to 5 volunteers participated in the screening of each set of chemicals. Complete Protection Time Test: Complete protection time (CPT) on treated cloth is a method of screening that is used to determine the repellent duration for experimental chemicals that have not been examined for safe use on humans. The standard repellent DEET was used as a positive control as a benchmark by which to compare the repellents. Experimental compounds were prepared in solution by combining 0.075 g of experimental chemical with 1 mL of acetone in a 7.1-mL screwtop glass vial. The same concentration level of DEET was also prepared in this way to serve as a control and a comparison for relative repellency. A 50 cm^2 (5 cm×10 cm) patch of muslin cloth was rolled lengthwise and placed into each of the glass vials and sealed with a screwtop so it soaked up the solution. Just prior to the experiment, the pieces of treated cloth were removed from the vials, affixed to card stock tabs (5 cm×3 cm) with staples, and hung with masking tape on a rack to dry and allowed the volatile acetone to evaporate. Similar to the MED tests, volunteers wore a latex glove over their hands, a nylon stocking over their arm, and then wrapped a plastic Velcro-sealed sleeve over their entire forearm with a 32 cm^2 (4 cm×8 cm) window cut-out to allow mosquitoes to bite through. Dried cloth patches were stretched across the window in the plastic sleeve and held in place with masking tape. Volunteers placed their sleeve-covered arms into a screened cage for a one minute period with approximately 500 female Ae. aegypti mosquitoes that had been preselected for host-seeking behavior using a draw box. A cloth patch that received a 1% bite through level, equal to 5 mosquitoes that bit out of 500 mosquitoes, was considered a failure at that concentration. If 0-4 bites were received, then the treated cloth was still considered to be repellent at that concentration. The duration was recorded as the number of days an experimental chemical received a passing result, with day 0 being the day the sample was first dried. […] As with the tests conducted to determine CPT, volunteers in the study provided informed consent (IRB protocol #636-2005). The protocol was approved by the University of Florida Human Use Institutional Review Board.

[3] = Table 1 preliminary assay, human subject M4, highest concentration 1.500 mg/cm^2
[4] = Table 1 preliminary assay, human subject M5, highest concentration 1.500 mg/cm^2
[5] = Table 1 preliminary assay, human subject M8, highest concentration 1.500 mg/cm^2
[6] = Table 1 preliminary assay, highest concentration 1.500 mg/cm^2
[7] = Table 1 preliminary assay, mean of 5 volunteers
[8] = Table 5, subject M4, highest dose 0.375 mg/cm2 (0.187 for 7)
[9] = Table 5, subject M5, highest dose 0.375 mg/cm2 (0.187 for 7)
[10] = Table 5, subject M8, highest dose 0.375 mg/cm2 (0.187 for 7)

| Compound | An. albimanus Minimum Effective Dosage, Average (An. albimanus) [mg/cm^2] | An. albimanus Minimum Effective Dosage, M4 (An. albimanus) [mg/cm^2] | An. albimanus Minimum Effective Dosage, M5 (An. albimanus) [mg/cm^2] | An. albimanus Minimum Effective Dosage, M8 (An. albimanus) [mg/cm^2] | An. albimanus Minimum Effective Dosage, M9 (An. albimanus) [mg/cm^2] | An. albimanus Minimum Effective Dosage, M10 (An. albimanus) [mg/cm^2] | Ae. aegypti Minimum Effective Dosage, M4 (Ae. aegypti [1]; [3]) [mg/cm^2] | Ae. aegypti Minimum Effective Dosage, M5 (Ae. aegypti [1]; [4]) [mg/cm^2] | Ae. aegypti Minimum Effective Dosage, M8 (Ae. aegypti [1]; [5]) [mg/cm^2] | Ae. aegypti Minimum Effective Dosage, M9 (Ae. aegypti [1]; [6]) [mg/cm^2] | Ae. aegypti Minimum Effective Dosage, M10 (Ae. aegypti [1]; [6]) [mg/cm^2] | Ae. aegypti Minimum Effective Dosage, Average (Ae. aegypti [1]; [7]) [mg/cm^2] | Ae. aegypti Minimum Effective Dosage, Average (Ae. aegypti [1]; Table 5, mean of 3 volunteers) [mg/cm^2] | Ae. aegypti Minimum Effective Dosage, M4 (Ae. aegypti [1]; [8]) [mg/cm^2] | Ae. aegypti Minimum Effective Dosage, M5 (Ae. aegypti [1]; [9]) [mg/cm^2] | Ae. aegypti Minimum Effective Dosage, M8 (Ae. aegypti [1]; [10]) [mg/cm^2] | Duration of protection, Proportion to DEET (Ae. aegypti [2]) | Duration of protection against Ae. aegypti, M-3 Days Protection (Ae. aegypti [2]) [days] | other results |
| --- | --- | --- | --- | --- | --- | --- | --- | --- | --- | --- | --- | --- | --- | --- | --- | --- | --- | --- | --- |
| CC1(C)C=Cc2c(CO)cccc2O1 [Compound 2] | 0.234 | 0.047 | 0.375 | 0.187 | 0.375 | 0.187 | 0.011 | 0.011 | 0.011 | 0.094 | 0.047 | 0.035 | 0.009 | 0.011 | 0.011 | 0.006 | 3.00 | 6 | mosquito repellent activity against Ae. aegypti (in words) (Ae. aegypti [1]; MED test on treated cloth): act as mosquito repellents; Ae. aegypti Minimum Effective Dosage, F1 (Ae. aegypti [1]; Table 2, human subject F1, highest concentration 1.500 mg/cm^2): 0.023 mg/cm^2; Ae. aegypti Minimum Effective Dosage, M1 (Ae. aegypti [1]; Table 2, human subject M1, highest concentration 1.500 mg/cm^2): 0.023 mg/cm^2; Ae. aegypti Minimum Effective Dosage, M2 (Ae. aegypti [1]; Table 2, human subject M2, highest concentration 1.500 mg/cm^2): 0.023 mg/cm^2; Ae. aegypti Minimum Effective Dosage, Average (Ae. aegypti [1]; Table 2, mean of 3 volunteers): 0.023 mg/cm^2; MED for ~100% Repellency (ED99), surface concentration (Ae. aegypti [1]; Table 7, treated cloth, female Aedes aegypti): 0.011 mg/cm^2 |
| CCN(CC)C(=O)c1cccc(C)c1 [DEET, N,N-diethyl-3-methylbenzamide, reference compound] | 0.025 | 0.011 | 0.047 | 0.023 | 0.023 | 0.023 | 0.111 | 0.023 | 0.023 | 0.023 | 0.023 | 0.021 | 0.015 | 0.011 | 0.011 | 0.023 | 1.00 | 2 |  |
